Like-named read-outs stand apart in the source and are kept apart here.
Legend:
[1] = Aqueous dispersibility; format: physicochemical; settings: USP-purified water; no heat, detergents, co-solvents
Excerpt: In some embodiments, highly water-dispersible C40 carotenoid derivatives may include natural source RRR-lutein (β,ε-carotene-3,3′-diol) derivatives. Derivatives may be synthesized by esterification with inorganic phosphate and succinic acid, respectively, and subsequently converted to the sodium salts. Deep orange, evenly colored aqueous suspensions were obtained after addition of these derivatives to USP-purified water. […] Aqueous suspensions may be obtained without the addition of heat, detergents, co-solvents, or other additives.
Disodium disuccinate astaxanthin (DDA; see FIG. 1B) was synthesized from commercially available crystalline astaxanthin (Buckton Scott, India) as previously described in Frey, et al. (“The efficient synthesis of disodium disuccinate astaxanthin (Cardax).” Org Process Res Dev 8: 796-801, 2004.). The final product purity was 97% (as area under the curve) by HPLC analysis. DDA was dissolved directly in sterile-filtered deionized water. The maximum aqueous dispersibility of DDA is approximately 10 mM, or 8.64 mg/ml. Vehicle consisted of isotonic sterile 0.9% NaCl solution.

[2] = rat, in vivo
Procedure: In a another experiment, all-trans 3S,3′S-astaxanthin diester diglycinate dihydrochloride salt (hereinafter “ADG”); all-trans 3S,3′S-astaxanthin diester disarcosinate dihydrochloride salt (hereinafter “ADSa”); and ADL were administered orally to separate rats as a aqueous suspension containing 0.5% carboxymethylcellulose. A single dose that included 40 mg/kg of the carotenoid derivative was administered to each rat. (See FIG. 20, PK Study #CXPK07202). For each carotenoid derivative given to the rats in this example, the amount of all astaxanthin isomers, the amount of trans astaxanthin isomers, and the amount of cis astaxanthin isomers in the plasma was determined at predefined time intervals for 3 days (72 hours).
In another experiment, ADG; ADSa; and ADL were administered to separate rats intravenously as an aqueous solution. A single dose that included 5 mg/kg of the carotenoid derivative was administered to each rat. (See FIG. 20, PK Study #CXPK07202). For each carotenoid derivative given to the rats in this example, the amount of all astaxanthin isomers, the amount of trans astaxanthin isomers, and the amount of cis astaxanthin isomers in the plasma was determined at predefined time intervals for 3 days (72 hours).

[3] = Dog PK of astaxanthin derivatives (CXPK07402, 07404, 07405, 07406)
Procedure: In another experiment, ADL was administered to non-naïve beagle dogs orally (as an aqueous suspension containing 0.5% carboxymethylcellulose) and intravenously as an aqueous solution. Oral doses that included 10 mg/kg of the carotenoid derivative, 100 mg/kg of the carotenoid derivative, and 500 mg/kg of the carotenoid derivative were administered to each dog. The intravenous dosage was 5 mg/kg. (See FIG. 20, PK Study #CXPK07402). For each carotenoid derivative given to the dogs in this example, the amount of all astaxanthin isomers, the amount of trans astaxanthin isomers, and the amount of cis astaxanthin isomers in the plasma was determined at predefined time intervals for 3 days (72 hours).
In another experiment, ADL was administered to naïve beagle dogs orally (as an aqueous suspension containing 0.5% carboxymethylcellulose) twice a day for six days. Each oral dose included 75 mg/kg of the carotenoid derivative. (See FIG. 20, PK Study #CXPK07404). For each carotenoid derivative given to the dogs in this example, the amount of all astaxanthin isomers, the amount of trans astaxanthin isomers, and the amount of cis astaxanthin isomers in the plasma was determined at predefined time intervals for 6 days.
In another experiment, all-trans 3S,3′ S-astaxanthin diester di-beta-alanine dihydrochloride salt (hereinafter “ADA”); ADG; ADL; ADSa; and ADS were administered orally to separate non-naïve dogs as a aqueous suspension containing 0.5% carboxymethylcellulose. A single dose that included 20 mg/kg of the carotenoid derivative was administered to each dog. (See FIG. 20, PK Study #CXPK07405). For each carotenoid derivative given to the dogs in this example, the amount of all astaxanthin isomers was determined at predefined time intervals for 3 days (72 hours).
In another experiment, ADG or ADSa was administered to non-naïve beagle dogs orally (as an aqueous suspension containing 0.5% carboxymethylcellulose). Oral doses included either 50 mg/kg of the carotenoid derivative or 100 mg/kg of the carotenoid derivative. (See FIG. 20, PK Study #CXPK07406). For each carotenoid derivative given to the dogs in this example, the amount of all astaxanthin isomers, the amount of trans astaxanthin isomers, and the amount of cis astaxanthin isomers in the plasma was determined at predefined time intervals for 3 days (72 hours).

[4] = parameters: species or system rats; settings: in vivo, po, 500 mg/kg
Procedure: In one experiment, astaxanthin; all-trans 3S,3'S-astaxanthin diester disuccinate disodium salt (hereinafter “ADS”); and all-trans 3S,3'S-astaxanthin diester […] tetrahydrochloride salt (hereinafter “ADL”) were administered orally to separate rats as a lipid suspension. A single dose that included 500 mg/kg of the carotenoid/carotenoid derivative was administered to each rat. (See FIG. 20, PK Study #CXPK07201). Plasma from each of the rats was collected 4 hours after ingestion and 8 hours after ingestion and all samples were analyzed by high performance liquid chromatography (“HPLC”). HPLC analysis was used to detect the presence of free underivatized carotenoid (e.g., in this example, astaxanthin) in the plasma. HPLC chromatograms were collected for each plasma sample taken.

[5] = system: human umbilical vein endothelial cells (HUVEC); test: Calcium ionophore (CaI)-stimulated total nitric oxide release from HUVEC; format: cell-based; settings: 3S,3′S-AST 5.0 μM, clopidogrel 1.0 μM, alone or in combination; FIG. 5
Procedure: (§1) Human umbilical vein endothelial cells (HUVECs) were isolated into primary cultures from white female donors by Clonetics (San Diego, Calif.), essentially as described (Mason et al. 2005). All donors were reported to be healthy and none had pregnancy or prenatal complications. All measurements were recorded in vitro using a sensitive porphyrinic probe, also as previously described. HUVEC cells were grown in Ham's F12K medium with 2 mM L-glutamine adjusted to contain 1.5 g/L sodium bicarbonate and supplemented with 0.1 mg/mL heparin and 0.03-0.05 mg/mL endothelial cell growth supplement (ECGS) plus 10% fetal bovine serum. The HUVEC cells were kept in an atmosphere of elevated CO2 concentration (5%).
All measurements of NO release were conducted in Hank's balanced salt solution (HBSS) at 37° C. The sensor operated with a three-electrode system: nanosensor (working electrode), saturated calomel electrode (reference electrode), and platinum wire (counter electrode, 0.5 mm diameter). The three electrodes were connected to a potentiostat/galvanostat PAR273. […] The current (amps) proportional to the NO concentration was measured with the sensor, which operated in amperometric mode at a constant potential of 0.63 V. Data were acquired with the use of custom software. Amperograms (current vs. time curves) were recorded with a Guniry FAS1 Femtostat (Warminster, Pa.).

[6] = system: vascular platelets; test: Platelet-derived nitric oxide (NO) release after IP3 stimulation, NO nanosensor; format: cell-based, Wistar-Kyoto (WKY) rats
Procedure: Wistar-Kyoto (WKY) rats were anaesthetized and blood was collected directly from the heart using a 10 mL syringe that contained 3.8% sodium citrate (9:1, v v^−1). […] The platelet rich plasma (PRP) was then removed by aspiration. […] The number of platelets was counted and adjusted to 3.5×10^8 per mL with Tyrode-HEPES buffer. The platelets were incubated in an aggregometer with a NO nanosensor (working electrode) placed in the platelet suspension. […] All measurements of NO release were conducted in Hank's balanced salt solution (HBSS) at 37° C. The sensor operated with a three-electrode system: nanosensor (working electrode), saturated calomel electrode (reference electrode), and platinum wire (counter electrode, 0.5 mm diameter). The three electrodes were connected to a potentiostat/galvanostat PAR273. The baseline was stabilized after ˜20 s. With a nanoinjector, the test compounds were injected onto the surface of the cells following solubilization in buffer. In experiments with multiple compounds, the compounds were injected simultaneously. […] Data were acquired with the use of custom software. Amperograms (current vs. time curves) were recorded with a Guniry FAS1 Femtostat (Warminster, Pa.). The nanosensor for NO was calibrated using saturated solution (concentration 1.82 mM verified with the coulometric method). […] The data were presented as mean±S.D. for each of the triplicate measurements. The data (calculation and plotting) were transferred to Microcal Origin Software (OriginLab Corp., Northampton, Mass.). […] The NO concentration was calculated using current responses obtained from standard NO solution (prepared from […] stock solution, saturated aqueous NO solution).

[7] = system: human umbilical vein endothelial cells (HUVEC); test: CaI-stimulated NO/OONO- release ratio from HUVEC; format: cell-based; settings: 3S,3′S-AST 5.0 μM, clopidogrel 1.0 μM, alone or in combination; FIG. 7
Procedure: as §1

[8] = system: human umbilical vein endothelial cells (HUVEC); test: Calcium ionophore (CaI)-stimulated total peroxynitrite release from HUVEC; format: cell-based; settings: 3S,3′S-AST 5.0 μM, clopidogrel 1.0 μM, alone or in combination; FIG. 6
Procedure: as §1

CC(C=CC=C(C)C=CC1=C(C)CC(OC(=O)CCC(=O)[O-])CC1(C)C)=CC=CC=C(C)C=CC=C(C)C=CC1C(C)=CC(OC(=O)CCC(=O)[O-])CC1(C)C.[Na+].[Na+] (centres unmarked)
aqueous dispersibility [1]: 2.85 mg/mL

CC1=C(/C=C/C(C)=C/C=C/C(C)=C/C=C/C=C(C)/C=C/C=C(C)/C=C/C2=C(C)C(=O)[C@@H](OC(=O)CN)CC2(C)C)C(C)(C)C[C@H](OC(=O)CN)C1=O.Cl.Cl (relative stereo) [ADG, all-trans 3S,3′S-astaxanthin diester diglycinate dihydrochloride salt]
absorption and metabolism to astaxanthin in plasma ([2]; iv, 5 mg/kg): absorbed by the rats and metabolized | absorption and metabolism to astaxanthin in plasma ([2]; po, 40 mg/kg): absorbed by the rats and metabolized | absorption and metabolism to astaxanthin in plasma ([3]; dog, in vivo, po, 20 mg/kg): absorbed by the dogs and metabolized

CC1=C(/C=C/C(C)=C/C=C/C(C)=C/C=C/C=C(C)/C=C/C=C(C)/C=C/C2=C(C)C(=O)[C@@H](OC(=O)[C@@H](N)CCCCN)CC2(C)C)C(C)(C)C[C@H](OC(=O)[C@@H](N)CCCCN)C1=O.Cl.Cl.Cl.Cl (relative stereo) [ADL, all-trans 3S,3′S-astaxanthin diester dilysinate tetrahydrochloride salt]
absorption and metabolism to astaxanthin in plasma ([2]; iv, 5 mg/kg): absorbed by the rats and metabolized | absorption and metabolism to astaxanthin in plasma ([2]; po, 40 mg/kg): absorbed by the rats and metabolized | absorption and metabolism to astaxanthin in plasma ([3]; dog, in vivo, po, 20 mg/kg): absorbed by the dogs and metabolized | absorption and metabolism to astaxanthin in plasma ([3]; dog, in vivo, po, 75 mg/kg): absorbed by the dogs and metabolized | free astaxanthin in rat plasma [4]: significant amount

CC1=C(/C=C/C(C)=C/C=C/C(C)=C/C=C/C=C(C)/C=C/C=C(C)/C=C/C2=C(C)C(=O)[C@@H](OC(=O)CCC(=O)[O-])CC2(C)C)C(C)(C)C[C@H](OC(=O)CCC(=O)[O-])C1=O.[Na+].[Na+] (relative stereo) [ADS, all-trans 3S,3′S-astaxanthin diester disuccinate disodium salt]
absorption and metabolism to astaxanthin in plasma ([3]; dog, in vivo, po, 20 mg/kg): absorbed by the dogs and metabolized | free astaxanthin in rat plasma [4]: significant amount

CC(C=CC=C(C)C=CC1=C(C)C(=O)C(OC(=O)CCN)CC1(C)C)=CC=CC=C(C)C=CC=C(C)C=CC1=C(C)C(=O)C(OC(=O)CCN)CC1(C)C.Cl.Cl (stereo not drawn) [ADA, all-trans 3S,3′ S-astaxanthin diester di-beta-alanine dihydrochloride salt]
absorption and metabolism to astaxanthin in plasma ([3]; non-naïve dogs, single oral 20 mg/kg): absorbed by the dogs and metabolized

COC(=O)[C@H](c1ccccc1Cl)N1CCc2sccc2C1 [clopidogrel, reference compound]
effect on CaI-stimulated total nitric oxide release from HUVEC [5]: did not significantly change | total NO release from vascular platelets ([6]; IP3 stimulation, homochiral astaxanthin 5.0 μM, clopidogrel 1.0 μM, controls 6.6±0.3, mean±S.D.): 10.2±0.4 molecules NO×10^6/platelet | effect on CaI-stimulated NO/OONO− release ratio from HUVEC [7]: did not significantly change | effect on CaI-stimulated total peroxynitrite (OONO−) release from HUVEC [8]: did not significantly change

CCC(C)(C)C(=O)O[C@H]1C[C@@H](C)C=C2C=C[C@H](C)[C@H](CC[C@@H]3C[C@@H](O)CC(=O)O3)[C@H]21 [simvastatin, reference compound]
effect on platelet-derived NO release ([6]; 1.0 μM, IP3 1.0 μM, FIG. 11): no effect
